The source of these data is ChEMBL document CHEMBL3046423, “SQ109 analogues as potential antimicrobial candidates” (2011).

Converted amounts (≈) assume the structure as drawn.

What all share (format): functional
One experiment concerns Sporothrix schenckii. Description: Antifungal activity against Sporothrix schenckii after 24 hr by broth microdilution method. For orientation: In broth dilution the organism is exposed to a series of concentrations in liquid medium.
The test system of another experiment is Scopulariopsis. Description: Antifungal activity against Scopulariopsis spp. after 24 hr by broth microdilution method.
In experiment [1] the test system is Candida parapsilosis. Briefly: Antifungal activity against Candida parapsilosis ATCC 22019 after 24 hr by broth microdilution method. As to conditions: Lodderomyces parapsilosis, ATCC 22019, 24 h.
The test system of another experiment is Rhizomucor. Description: Antifungal activity against Rhizomucor spp. after 24 hr by broth microdilution method.
The subject of experiment [2] is Candida albicans. Briefly: Antifungal activity against Candida albicans ATCC 90028 after 24 hr by broth microdilution method. As to conditions: ATCC 90028, 24 h.
A further experiment has as its system Fusarium sp. Briefly: Antifungal activity against Fusarium sp. after 24 hr by broth microdilution method.
The test system of experiment [3] is Candida parapsilosis. Briefly: Antifungal activity against fluconazole-resistant Candida parapsilosis after 24 hr by broth microdilution method. As to conditions: Lodderomyces parapsilosis.
The next experiment deals with Cyberlindnera jadinii. Description: Antifungal activity against Cyberlindnera jadinii after 24 hr by broth microdilution method. As to conditions: Williopsis jadinii.
The next experiment relates to Trichosporon asahii. Description: Antifungal activity against Trichosporon asahii after 24 hr by broth microdilution method.
The test system of a further experiment is Staphylococcus aureus. Briefly: Antibacterial activity against Staphylococcus aureus ATCC 43300 after 16 to 18 hr by broth microdilution method.
For another experiment, the system named is Klebsiella pneumoniae. Description: Antibacterial activity against Klebsiella pneumoniae ATCC 700603 after 16 to 18 hr by broth microdilution method.
In experiment [4] the test system is Pichia kudriavzevii. Description: Antifungal activity against fluconazole-resistant Pichia kudriavzevii after 24 hr by broth microdilution method.
The test system of the next experiment is Prescottella equi. Description: Antibacterial activity against Rhodococcus equi ATCC 6939 after 16 to 18 hr by broth microdilution method. As to conditions: Rhodococcus (subgen. Prescottella) equi.
A further experiment deals with Bacillus subtilis. Briefly: Antibacterial activity against Bacillus subtilis ATCC 6051 after 16 to 18 hr by broth microdilution method.
Experiment [5] concerns Aspergillus flavus. Briefly: Antifungal activity against Aspergillus flavus after 24 hr by broth microdilution method.
For a further experiment, the system named is Klebsiella oxytoca. Description: Antibacterial activity against Klebsiella oxytoca ATCC 13182 after 16 to 18 hr by broth microdilution method.
Another experiment concerns Aspergillus fumigatus. Briefly: Antifungal activity against Aspergillus fumigatus after 24 hr by broth microdilution method.
The next experiment deals with Candida tropicalis. Description: Antifungal activity against Candida tropicalis after 24 hr by broth microdilution method.
The next experiment has as its system Staphylococcus xylosus. Briefly: Antibacterial activity against Staphylococcus xylosus ATCC 35033 after 16 to 18 hr by broth microdilution method.
In experiment [6] the test system is Pichia kudriavzevii. Briefly: Antifungal activity against Pichia kudriavzevii after 24 hr by broth microdilution method.
Experiment [7] has as its system Elizabethkingia meningoseptica. Briefly: Antibacterial activity against Elizabethkingia meningoseptica ATCC 13253 after 16 to 18 hr by broth microdilution method.
The test system of experiment [8] is Aspergillus flavus. Briefly: Antifungal activity against Aspergillus flavus MRC 2527 after 24 hr by broth microdilution method. As to conditions: MRC 2527, 24 h.
The next experiment concerns Penicillium sp. Description: Antifungal activity against Penicillium sp. after 24 hr by broth microdilution method.
The test system of another experiment is Escherichia coli. Briefly: Antibacterial activity against Escherichia coli ATCC 35218 after 16 to 18 hr by broth microdilution method.
The subject of experiment [9] is Candida albicans. Description: Antifungal activity against fluconazole-susceptible Candida albicans.
Experiment [10] relates to Candida albicans. Briefly: Antifungal activity against fluconazole-resistant Candida albicans.

Usually MIC stands for the least concentration at which growth counts as inhibited. Low values mean inhibition by little substance, high ones a need for much substance. As to `C[C@@H]1[C@H](O)[C@@H](C)/C=C/C=C/C=C/C=C/C=C/C=C/C=C/[C@H](O[C@@H]2O[C@H](C)[C@@H](O)[C@H](N)[C@@H]2O)C[C@@H]2O[C@](O)(C[C@@H](O)C[C@@H](O)[C@H](O)CC[C@@H](O)C[C@@H](O)CC(=O)O[C@H]1C)C[C@H](O)[C@H]2C(=O)O` [AMPHOTERICIN B], the minimal inhibitory concentration (MIC) was 5 µg/mL (≈ 5.41 µM) against Sporothrix schenckii; 10 µg/mL (≈ 10.8 µM) against Scopulariopsis; 0.04 µg/mL (≈ 0.0433 µM) with Candida parapsilosis [1]; 0.31 µg/mL (≈ 0.335 µM) in the experiment on Rhizomucor; 0.62 µg/mL (≈ 0.671 µM) with Candida albicans [2]; 2.5 µg/mL (≈ 2.71 µM) against Fusarium sp.. Further, the MIC in the experiment on Candida parapsilosis [3] is 0.02 µg/mL (≈ 0.0216 µM); against Cyberlindnera jadinii it was 0.31 µg/mL (≈ 0.335 µM); with Trichosporon asahii it was 0.31 µg/mL (≈ 0.335 µM).
With `CC(C)CCCC(C)CCCC(C)CCNCCNC1C2CC3CC(C2)CC1C3.Cl` (stereo not drawn), the MIC is 7.8 µg/mL with Staphylococcus aureus; 250 µg/mL in the experiment with Klebsiella pneumoniae; 1.56 µg/mL against Sporothrix schenckii; 3.13 µg/mL in the experiment on Pichia kudriavzevii [4]; 3.9 µg/mL in the experiment with Prescottella equi; 3.13 µg/mL against Scopulariopsis. Also, the MIC came out at 3.9 µg/mL in the experiment with Bacillus subtilis; 25 µg/mL in the experiment with Aspergillus flavus [5]; 6.25 µg/mL against Candida parapsilosis [1]; 12.5 µg/mL in the experiment on Rhizomucor; 31.2 µg/mL against Klebsiella oxytoca; 12.5 µg/mL with Aspergillus fumigatus. Besides, the MIC against Candida tropicalis is 6.25 µg/mL; against Candida albicans [2], 6.25 µg/mL; in the experiment on Staphylococcus xylosus, 3.9 µg/mL; in the experiment on Pichia kudriavzevii [6], 6.25 µg/mL; in experiment [7], 7.8 µg/mL; in the experiment on Aspergillus flavus [8], more than 100 µg/mL. In addition, the MIC is 6.25 µg/mL in the experiment on Penicillium sp.; 12.5 µg/mL against Fusarium sp.; 6.25 µg/mL with Candida parapsilosis [3]; 3.13 µg/mL in the experiment on Cyberlindnera jadinii; 6.25 µg/mL with Trichosporon asahii; 7.8 µg/mL against Escherichia coli.
In the case of `CC(C)=CCC/C(C)=C/CC/C(C)=C/CNCCNC1C2CC3CC(C2)CC1C3.Cl` (stereo not drawn), the MIC with Staphylococcus aureus was 15.6 µg/mL; against Klebsiella pneumoniae, 125 µg/mL; against Sporothrix schenckii, 0.98 µg/mL; against Pichia kudriavzevii [4], 1.95 µg/mL; against Prescottella equi it was 7.8 µg/mL; against Scopulariopsis, 3.9 µg/mL. Also, the minimal inhibitory concentration (MIC) in the experiment with Bacillus subtilis is 7.8 µg/mL; against Aspergillus flavus [5] it was 15.6 µg/mL; in the experiment on Candida parapsilosis [1], 7.8 µg/mL; against Rhizomucor, 7.8 µg/mL; against Klebsiella oxytoca, 15.6 µg/mL; in the experiment with Aspergillus fumigatus, 7.8 µg/mL. The minimum inhibitory concentration (MIC) with Candida tropicalis came to 3.9 µg/mL; in the experiment with Candida albicans [2], 7.8 µg/mL; in the experiment on Staphylococcus xylosus, 7.8 µg/mL; with Pichia kudriavzevii [6], 3.9 µg/mL; in [7], 15.6 µg/mL; with Aspergillus flavus [8], 25 µg/mL. Further, the MIC with Penicillium sp. turned out to be 3.9 µg/mL; with Fusarium sp., 7.8 µg/mL; in the experiment on Candida parapsilosis [3], 3.9 µg/mL; against Cyberlindnera jadinii, 1.95 µg/mL; against Trichosporon asahii, 3.9 µg/mL; against Escherichia coli, 7.8 µg/mL.
Turning to `NC[C@@H]1O[C@H](O[C@H]2[C@@H](O)[C@H](O[C@@H]3[C@@H](O)[C@H](N)C[C@H](N)[C@H]3O[C@H]3O[C@H](CN)[C@@H](O)[C@H](O)[C@H]3N)O[C@@H]2CO)[C@H](N)[C@@H](O)[C@@H]1O` [FRAMYCETIN], the MIC against Staphylococcus aureus stood at 25 µg/mL (≈ 40.7 µM); with Klebsiella pneumoniae, 6.25 µg/mL (≈ 10.2 µM); with Prescottella equi, 1.56 µg/mL (≈ 2.54 µM); in the experiment on Bacillus subtilis, 0.78 µg/mL (≈ 1.27 µM); against Klebsiella oxytoca, 6.25 µg/mL (≈ 10.2 µM); with Staphylococcus xylosus, 0.2 µg/mL (≈ 0.325 µM). The minimal inhibitory concentration (MIC) in experiment [7] worked out at 12.5 µg/mL (≈ 20.3 µM); in the experiment on Escherichia coli it was 3.13 µg/mL (≈ 5.09 µM).
As for `CC(C)CCCC(C)CCNCCNC1C2CC3CC(C2)CC1C3.Cl` (stereo not drawn), the MIC against Staphylococcus aureus worked out at 31.2 µg/mL; with Klebsiella pneumoniae it was 125 µg/mL; against Sporothrix schenckii, 0.49 µg/mL; with Pichia kudriavzevii [4], 0.98 µg/mL; in the experiment on Prescottella equi it was 7.8 µg/mL; in the experiment on Scopulariopsis, 1.95 µg/mL. Further, the minimum inhibitory concentration (MIC) against Bacillus subtilis stood at 15.6 µg/mL; with Aspergillus flavus [5], 31.2 µg/mL; against Candida parapsilosis [1] it was 7.8 µg/mL; with Rhizomucor it was 7.8 µg/mL; with Klebsiella oxytoca it was 62.5 µg/mL; in the experiment with Aspergillus fumigatus, 7.8 µg/mL. Further, the MIC in the experiment with Candida tropicalis was 7.8 µg/mL; against Candida albicans [2], 3.9 µg/mL; against Staphylococcus xylosus it was 15.6 µg/mL; against Pichia kudriavzevii [6] it was 7.8 µg/mL; in experiment [7], 31.2 µg/mL; against Aspergillus flavus [8], 25 µg/mL. Also, the MIC in the experiment with Penicillium sp. was determined as 3.9 µg/mL; in the experiment on Fusarium sp., 7.8 µg/mL; in the experiment with Candida parapsilosis [3], 7.8 µg/mL; against Cyberlindnera jadinii, 1.95 µg/mL; against Trichosporon asahii, 7.8 µg/mL; with Escherichia coli, 31.2 µg/mL.
For `CC(C)CCCC(C)CCNCCNC12CC3CC(CC(C3)C1)C2.Cl` (stereo not drawn), the MIC amounted to 62.5 µg/mL in the experiment on Staphylococcus aureus; 62.5 µg/mL in the experiment with Klebsiella pneumoniae; 0.49 µg/mL in the experiment with Sporothrix schenckii; 0.98 µg/mL against Pichia kudriavzevii [4]; 15.6 µg/mL in the experiment with Prescottella equi; 1.95 µg/mL against Scopulariopsis. Moreover, the MIC against Bacillus subtilis is 15.6 µg/mL; against Aspergillus flavus [5], 31.2 µg/mL; in the experiment with Candida parapsilosis [1], 15.6 µg/mL; in the experiment on Rhizomucor, 7.8 µg/mL; in the experiment on Klebsiella oxytoca, 62.5 µg/mL; in the experiment on Aspergillus fumigatus, 15.6 µg/mL. Also, the MIC with Candida tropicalis is 3.9 µg/mL; against Candida albicans [2] it was 3.9 µg/mL; against Staphylococcus xylosus, 15.6 µg/mL; against Pichia kudriavzevii [6] it was 15.6 µg/mL; in [7], 31.2 µg/mL; in the experiment with Aspergillus flavus [8], 25 µg/mL. For the same molecule, the MIC worked out at 7.8 µg/mL against Penicillium sp.; 7.8 µg/mL against Fusarium sp.; 7.8 µg/mL in the experiment on Candida parapsilosis [3]; 1.95 µg/mL with Cyberlindnera jadinii; 7.8 µg/mL against Trichosporon asahii; 31.2 µg/mL in the experiment with Escherichia coli.
`CC(C)=CCC/C(C)=C/CNCCNC1C2CC3CC(C2)CC1C3.Cl` (stereo not drawn): the MIC against Staphylococcus aureus was 1000 µg/mL; against Klebsiella pneumoniae, 1000 µg/mL; with Sporothrix schenckii, 1.95 µg/mL; against Pichia kudriavzevii [4], 15.6 µg/mL; against Prescottella equi, 125 µg/mL; against Scopulariopsis it was 62.5 µg/mL. The MIC was 500 µg/mL with Bacillus subtilis; 500 µg/mL against Aspergillus flavus [5]; 250 µg/mL against Candida parapsilosis [1]; 125 µg/mL against Rhizomucor; 500 µg/mL against Klebsiella oxytoca; 250 µg/mL against Aspergillus fumigatus. Also, the MIC in the experiment on Candida tropicalis is 32.5 µg/mL; with Candida albicans [2] it was 125 µg/mL; against Staphylococcus xylosus, 500 µg/mL; against Pichia kudriavzevii [6] it was 250 µg/mL; in [7], 500 µg/mL; against Aspergillus flavus [8], more than 100 µg/mL. The MIC came out at 125 µg/mL against Penicillium sp.; 4 µg/mL in the experiment with Candida albicans [9]; 125 µg/mL against Fusarium sp.; 250 µg/mL in the experiment on Candida parapsilosis [3]; 4 µg/mL against Candida albicans [10]; 15.6 µg/mL against Cyberlindnera jadinii. Moreover, the MIC against Trichosporon asahii was 125 µg/mL; with Escherichia coli it was 500 µg/mL.
As for `CC(C)=CCC/C(C)=C/CNCCNC12CC3CC(CC(C3)C1)C2.Cl`, the MIC with Staphylococcus aureus stood at 500 µg/mL; in the experiment with Klebsiella pneumoniae it was 1000 µg/mL; in the experiment with Sporothrix schenckii, 3.9 µg/mL; against Pichia kudriavzevii [4] it was 15.6 µg/mL; against Prescottella equi, 125 µg/mL; against Scopulariopsis it was 125 µg/mL. Further, the MIC is 125 µg/mL against Bacillus subtilis; more than 500 µg/mL in the experiment with Aspergillus flavus [5]; 250 µg/mL against Candida parapsilosis [1]; 125 µg/mL with Rhizomucor; 500 µg/mL against Klebsiella oxytoca; 125 µg/mL against Aspergillus fumigatus. Further, the MIC is 62.5 µg/mL against Candida tropicalis; 31.2 µg/mL against Candida albicans [2]; 250 µg/mL in the experiment with Staphylococcus xylosus; 125 µg/mL with Pichia kudriavzevii [6]; 500 µg/mL in experiment [7]; more than 100 µg/mL against Aspergillus flavus [8]. For the same molecule, the MIC amounted to 62.5 µg/mL against Penicillium sp.; 250 µg/mL with Fusarium sp.; 125 µg/mL with Candida parapsilosis [3]; 31.2 µg/mL against Cyberlindnera jadinii; 125 µg/mL in the experiment with Trichosporon asahii; 500 µg/mL in the experiment on Escherichia coli.
